“Also recorded” adds a separate entry of the source. Read-outs that look alike come from different tables or passages of the source.
How the values were obtained:
RAD51 [1] = biological target: T1, RAD51 (Homo sapiens, UniProt Q06609); assay: Gel-based D-loop assay; format: biochemical; conditions: for IC50: read-out: D-Loops IC50; for D-loop inhibitory activity, in words: summary of Tables 2 and 3
T1 sequence (Q06609 1-339): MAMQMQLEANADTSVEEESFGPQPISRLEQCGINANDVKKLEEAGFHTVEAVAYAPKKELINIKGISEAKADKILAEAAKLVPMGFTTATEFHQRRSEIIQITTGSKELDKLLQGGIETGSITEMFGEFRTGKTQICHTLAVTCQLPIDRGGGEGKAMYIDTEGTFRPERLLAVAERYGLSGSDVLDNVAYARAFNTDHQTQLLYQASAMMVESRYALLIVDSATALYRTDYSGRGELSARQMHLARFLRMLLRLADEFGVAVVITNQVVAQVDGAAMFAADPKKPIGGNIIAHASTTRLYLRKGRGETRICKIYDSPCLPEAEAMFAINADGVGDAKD
Method: Human RAD51 in reaction buffer was combined with compound in […] DMSO, incubated at 37° C. for 10 min, and then 1 μl of 5′-^32P-labeled 90-mer ssDNA (5′-[…]) with homology to the plasmid pRS306 ^34 was added and the reaction was incubated at 37° C. for an additional 5 minutes. 1 μl of supercoiled pRS306 was then added to the reaction and incubated at 37° C. for 20 minutes; at this point the reaction consisted of 25 mM HEPES-NaOH (pH 7.0), 1 mM ATP, 1 mM MgCl2, 1 mM DTT, 1.5 μM BSA, 4.5% DMSO, 0.5 μM RAD51, 11 mM NaCl, 1% glycerol, 20 nM ssDNA, and 5 nM pRS306. The reactions were de-proteinized with 0.8% SDS and 0.8 mg/ml proteinase K, mixed with gel loading buffer, and run on a 0.9% agarose/1×TAE gel, which was dried and exposed to a phosphor screen overnight and imaged on a Storm 860 PhosphorImager. Compound IC50 values were obtained by least-squares regression fitting of appropriate linear, log, or sigmoid dose-response models to the data, with the standard error indicated.
To improve upon the D-loop inhibitory activity, medicinal chemical studies were undertaken to optimize 8. First, different functional groups were appended to rings A and B as substituents, including alkyl groups of different sizes, electron withdrawing/donating groups, and hydrogen bond donor/acceptor groups. Next, replacement of the phenyl ring B with different heterocycles or other saturated/unsaturated rings was investigated in order to probe its role. For each of the prepared compounds, the gel-based D-loop assay and the microplate-based DNA binding assay were used to characterize the biochemical activities.

RAD51 [2] = biological target: T1, RAD51; assay: Fluorescence polarization-based DNA binding assay (RAD51-ssDNA binding); format: biochemical; conditions: for IC50 / ssDNA binding IC50: Stim = stimulator; for Emax: read-out: ssDNA binding Max effect; for influence on RAD51-ssDNA binding, in words: summary of Tables 2 and 3
Method: The fluorescence polarization-based DNA binding assay and purification of human RAD51 used for this assay was performed as previously described with a few modifications.^23 Reactions were carried out in black 384-well polystyrene plates. In each well, RAD51 protein was combined with reaction buffer and varying concentrations of compound in DMSO in an initial volume of 40 μl and incubated at 37° C. for 40 minutes. Then, 10 μl of reaction buffer containing fluorescently-labeled ssDNA substrate (5′-Alexa488-oligo-dT45) was added and the reaction incubated at 37° C. for another 40 minutes, after which the plate was read on a Tecan Infinite 200 Pro plate reader equipped with two sets of 485±25 nm/535±35 nm with parallel or perpendicularly-oriented polarization filters. In both steps of the reaction setup, buffer components were maintained at 20 mM HEPES-NaOH (pH 7.5), 2 mM ATP, 10 mM MgCl2, 0.1 mM TCEP-HCl (tris(2-carboxyethyl)phosphine), and 0.25 μM BSA. The final reaction contained 4% DMSO, 0.2 μM RAD51, 30 mM NaCl, 2% glycerol, and 2.22 nM ssDNA substrate. Compound IC50 values were obtained by least-squares regression fitting of appropriate linear, log, or sigmoid dose-response models to the data, with the standard error indicated. […]

[3] = Table 2, cells marked ↓: compound inhibits RAD51-ssDNA binding
[4] = Table 2, cells marked ↑: compound stimulates RAD51-ssDNA binding
[5] = Table 3, cells marked ↓: compound inhibits RAD51-ssDNA binding
[6] = Table 3, cells marked ↑: compound stimulates RAD51-ssDNA binding

`c1cncc(-c2nc3ccccc3n3cccc23)c1` [Compound 11a, 4-(Pyridin-3-yl)pyrrolo[1,2-a]quinoxaline] was tested, and the IC50 (RAD51 [1]; Table 2) was 71.7 ± 18.1 µM, the “D-loop inhibitory activity, in words” value (RAD51 [1]) was “moderate” and the IC50 (RAD51 [2]; Table 2) was greater than 100 µM. For the same compound, the Emax (RAD51 [2]; [3]) was 6 ± 10%.

`c1ccc2c(c1)nc(-c1ccc(N3CCOCC3)cc1)c1cccn12` [Compound 9j, 4-(4-(Pyrrolo[1,2-a]quinoxalin-4-yl)phenyl)morpholine] was tested, and the “D-Loops Max inhibition effect” value (RAD51 [1]; Table 2) was 68 ± 7%, the IC50 (RAD51 [1]; Table 2) was 27.2 ± 3 µM and the Emax (RAD51 [2]; [3]) was 11 ± 19%.

For `c1ccc2c(c1)nc(-c1ccc(N3CCCC3)cc1)c1cccn12` [Compound 9i, 4-(4-(Pyrrolidin-1-yl)phenyl)pyrrolo[1,2-a]quinoxaline], the “ssDNA binding IC50” value (RAD51 [2]; Table 2) was “Stim”, the Emax (RAD51 [2]; [4]) was 69 ± 35% and the “influence on RAD51-ssDNA binding, in words” value (“influence” for short) (RAD51 [2]) was “modest influence”.

With `COc1ccc2c(c1)nc(-c1ccc(O)cc1)c1cccn12` [Compound 12a, 4-(7-Methoxypyrrolo[1,2-a]quinoxalin-4-yl)phenol] the “D-Loops Max inhibition effect” value (RAD51 [1]; Table 3) was 13 ± 12%, the IC50 (RAD51 [1]; Table 3) was greater than 100 µM and the IC50 (RAD51 [2]; Table 3) was 35 ± 14 µM. The Emax (RAD51 [2]; [5]) was 100 ± 18% and the “influence” value (RAD51 [2]) was “relatively strong ssDNA binding inhibition”.

For `Nc1cccc(-c2nc3ccccc3n3cccc23)c1` [Compound 9c, 3-(Pyrrolo[1,2-a]quinoxalin-4-yl)aniline], the IC50 (RAD51 [1]; Table 2) was 91.1 ± 10.3 µM and the Emax (RAD51 [2]; [3]) was 11 ± 9%.

For `O=[N+]([O-])c1cccc(-c2nc3ccccc3n3cccc23)c1` [Compound 9b, 4-(3-Nitrophenyl)pyrrolo[1,2-a]quinoxaline], the Emax (RAD51 [2]; [3]) was 52 ± 14% and the “influence” value (RAD51 [2]) was “modest influence”.

In the case of `CN(C)c1ccc(-c2nc3cc(F)ccc3n3cccc23)cc1` [Compound 12j, 4-(7-Fluoropyrrolo[1,2-a]quinoxalin-4-yl)-N,N-dimethylaniline], the “D-loop inhibitory activity, in words” value (RAD51 [1]) is reported as “nearly absent”, the “ssDNA binding IC50” value (RAD51 [2]; Table 3) is reported as “Stim” and the Emax (RAD51 [2]; [6]) is reported as 57 ± 28%.

In the case of `Nc1ccc(-c2nc3cc(OCCF)ccc3n3cccc23)cc1` [Compound 15b, 4-(7-(2-Fluoroethoxy)pyrrolo[1,2-a]quinoxalin-4-yl)aniline], the IC50 (RAD51 [1]; Table 3) is reported as 20 ± 4.1 µM, the “ssDNA binding IC50” value (RAD51 [2]; Table 3) is reported as “Stim” and the Emax (RAD51 [2]; [6]) is reported as 79 ± 23%. The “influence” value (RAD51 [2]) was “stimulators; also recorded: modest effects”.

For `COc1ccc2c(c1)nc(-c1ccc(N(C)C)cc1)c1cccn12` [Compound 8, 4-(7-Methoxypyrrolo[1,2-a]quinoxalin-4-yl)-N,N-dimethylaniline], the “D-Loops Max inhibition effect” value (RAD51 [1]; Table 1) was 67%, the IC50 (RAD51 [1]; Table 1) was 13 µM and the “ssDNA binding IC50” value (RAD51 [2]; Table 1) was “Stim”. The Emax (RAD51 [2]; Table 1, cells marked ↑: compound stimulates RAD51-ssDNA binding) was 40 ± 28%.

`COc1ccc2c(c1)nc(-c1ccc(N)cc1)c1cccn12` [Compound 12c, 4-(7-Methoxypyrrolo[1,2-a]quinoxalin-4-yl)aniline] was tested, and the “D-Loops Max inhibition effect” value (RAD51 [1]; Table 3) was 100 ± 4%, the IC50 (RAD51 [1]; Table 3) was 13.2 µM and the IC50 (RAD51 [2]; Table 3) was greater than 100 µM. The Emax (RAD51 [2]; [5]) was 29 ± 8% and the “influence” value (RAD51 [2]) was “only weakly influenced”.

`C1=C(c2nc3ccccc3n3cccc23)CCCC1` [Compound 11c, 4-(Cyclohex-1-en-1-yl)pyrrolo[1,2-a]quinoxaline] was tested, and the “D-loop inhibitory activity, in words” value (RAD51 [1]) was “weak”, the “ssDNA binding IC50” value (RAD51 [2]; Table 2) was “Stim” and the Emax (RAD51 [2]; [4]) was 42 ± 17%. The “influence” value (RAD51 [2]) was “modest influence”.

Work on `Oc1ccc(-c2nc3ccccc3n3cccc23)cc1` [Compound 9d] yielded an Emax (RAD51 [2]; [3]) of 14 ± 16%.

In the case of `O=[N+]([O-])c1ccc(-c2nc3cc(O)ccc3n3cccc23)cc1` [Compound 12e, 4-(4-Nitrophenyl)pyrrolo[1,2-a]quinoxalin-7-ol], the IC50 (RAD51 [2]; Table 3) is reported as 57.8 ± 3 µM and the Emax (RAD51 [2]; [5]) is reported as 92 ± 21%.

Work on `O=[N+]([O-])c1ccc(-c2nc3ccccc3n3cccc23)cc1` [Compound 9f, 4-(4-Nitrophenyl)pyrrolo[1,2-a]quinoxaline] yielded an Emax (RAD51 [2]; [3]) of 16 ± 13%.

`COc1ccc2c(c1)nc(-c1ccc([N+](=O)[O-])cc1)c1cccn12` [Compound 12b, 7-Methoxy-4-(4-nitrophenyl)pyrrolo[1,2-a]quinoxaline] was tested, and the “ssDNA binding IC50” value (RAD51 [2]; Table 3) was “Stim”, the Emax (RAD51 [2]; [6]) was 105 ± 47% and the “influence” value (RAD51 [2]) was “stimulators”.

With `FC(F)(F)Oc1ccc(-c2nc3ccccc3n3cccc23)cc1` [Compound 9e, 4-(4-(Trifluoromethoxy)phenyl)pyrrolo[1,2-a]quinoxaline] the “ssDNA binding IC50” value (RAD51 [2]; Table 2) was “Stim” and the Emax (RAD51 [2]; [4]) was 30 ± 21%.

Source: patent publication US10973819B2, “Small molecules inhibitors of RAD51” (The University of Chicago, priority 2016, dated 2021)
